Assays:
[1] = target: T1, GST-tagged GDP-loaded KRAS G12V (amino acids 1-169) (Homo sapiens, UniProt P01116, G12V); assay: KRAS G12V probe displacement assay (TR-FRET); type: binding; conditions: displacement of biotinylated probe 2 from GDP-loaded KRAS G12V
T1 construct: GST-tagged GDP-loaded KRAS G12V (amino acids 1-169); made in house; host or cells: E. coli
Procedure, shortened: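 Probe displacement read as TR-FRET (665/620 nm) with anti-GST-Tb and streptavidin-XL665, IC50 from four-parameter logistic fit. Compound preincubated 1 h, 24 °C, with E. coli-expressed KRAS 1-169: WT at 3 nM with 60 nM probe 1, G12V at 2 nM with 2.5 nM probe 2, pH 7.5.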

[2] = test system: pERK1/2(THR202/TYR204) level, SW620 cell line; assay: KRAS G12V pERK assay (HTRF); type: cell-based; conditions: Homo sapiens, SW-620; SW620 cells, 2 hrs compound treatment
Experimental: (§1) SW620 cell line was used in this study. Cells were maintained in RPMI 1640 supplemented with 10% fetal bovine serum (Thermo Fisher), 50 units/mL penicillin and streptomycin (Thermo Fisher) and kept at 37° C. in a humidified atmosphere of 5% CO2 in air. Cells were reinstated from frozen stocks that were laid down within 30 passages from the original cells purchased. 40000 cells per well were seeded into a 96-well plate and incubated overnight. Cells were treated with a 10-point dilution series. The final compound concentration is from 0 to 10 M. After 2 hrs compound treatment, cells were lysed, and the pERK1/2(THR202/TYR204) level in the cell lysates was detected by HTRF kit (Cisbio). In brief, a total of 16 μL of cell lysate from each well of a 96-well plate was transferred to a 384-well white assay plate. Lysate from each well was incubated with 2 μL of Eu3+− cryptate (donor) labeled anti-phospho-ERK1/2 and 2 μL of D2 (acceptor) labeled anti-phospho-ERK1/2 antibodies (Cisbio) overnight in dark at room temperature. When donor and acceptor are in close proximity, excitation of the donor with laser triggers a Fluorescence Resonance Energy Transfer (FRET) towards the acceptor, which in turn fluoresces at 655 nm wavelength. FRET signals were measured using a PHERAstar FSX reader (BMG Labtech). IC50 determination was performed by fitting the curve of percent inhibition versus the log of the inhibitor concentration using Dotmatics.

[3] = target: T2, GST-tagged GDP-loaded KRAS G12D (amin acids 1-188) (Homo sapiens, UniProt P01116, G12D); assay: KRAS G12D probe displacement assay (TR-FRET); type: binding; conditions: displacement of biotinylated probe 2 from GDP-loaded KRAS G12D
T2 construct: GST-tagged GDP-loaded KRAS G12D (amin acids 1-188); made in house; host or cells: E. coli
Experimental: KRAS WT and KRAS G12D Probe Displacement Assay
This assay was used to identify compounds which bind to GDP-loaded KRAS protein and are able to displace a biotinylated probe occupying the KRAS binding site. GST-tagged GDP-loaded WT KRAS (amino acids 1-188) and GST-tagged GDP-loaded KRAS G12D (amin acids 1-188) were expressed in E. coli and purified in house. All protein and reaction solutions were prepared in assay buffer containing 50 mM HEPES pH7.5, 50 mM NaCl, 1 mM MgCl2, 1 mM TCEP, 0.01% BSA, and 0.008% Brij-35. Purified WT KRAS (3 nM final concentration) or KRAS G12D protein (0.5 nM final concentration) was incubated with a 3-fold serially diluted compound in the assay plate (384 well microplate, black, Corning). Plates are incubated at 24° C. for 1 hr. Following the incubation, biotinylated probe 1 (60 nM final assay concentration) for WT KRAS and biotinylated probe 2 (4 nM final assay concentration) for KRAS G12D was added to the assay plate, respectively. After 1 hr incubation at 24° C., Mab Anti-GST-Tb cryptate (Cisbio) and Streptavidin-XL665 (Cisbio) were added and further incubated at 24° C. for another 1 hr. The TR-FRET signals (ex337 nm, em665 nm/620 nm) were read on BMG PHERAstar FSX instrument. The inhibition percentage of KRAS protein binding with biotinylated probe in presence of increasing concentrations of compounds was calculated based on the ratio of fluorescence at 665 nm to that at 620 nm. The IC50 value of each compound was calculated from fitting the data to the four-parameter logistic model by Dotmatics.

[4] = test system: pERK1/2(THR202/TYR204) level, AsPC-1 cell line; assay: KRAS G12D pERK assay (HTRF); type: cell-based; conditions: Homo sapiens, ASPC1; AsPC-1 cells, 2 h compound treatment
Experimental: as §1, with “AsPC-1” for “SW620”, “RPMI-1640” for “RPMI 1640”, “30000” for “40000”, “μM.” for “M.”, “h” for “hrs”

T1 sequence (P01116 1-169 isoform P01116-2 G12V): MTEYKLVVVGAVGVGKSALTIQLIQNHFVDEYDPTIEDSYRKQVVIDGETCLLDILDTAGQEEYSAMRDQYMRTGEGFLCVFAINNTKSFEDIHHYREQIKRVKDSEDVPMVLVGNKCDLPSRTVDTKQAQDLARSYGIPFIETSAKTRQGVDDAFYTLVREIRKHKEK
T2 sequence (P01116 1-188 isoform P01116-2 G12D): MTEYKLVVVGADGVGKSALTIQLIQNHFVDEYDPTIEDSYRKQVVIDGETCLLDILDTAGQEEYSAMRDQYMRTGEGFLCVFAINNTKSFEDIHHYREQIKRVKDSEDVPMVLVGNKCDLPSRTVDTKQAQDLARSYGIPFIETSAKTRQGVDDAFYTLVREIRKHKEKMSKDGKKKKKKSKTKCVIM

Structure (SMILES)	IC50 [1]	IC50 [2]	IC50 [3]	IC50 [4]
Nc1nc2c(-c3c(C(F)(F)F)cc4c(NC5CC5)nc(OC[C@@]56CCCN5C[C@H](F)C6)nc4c3F)ccc(F)c2s1 [Example 1, 4-(4-(cyclopropylamino)-8-fluoro-2-(((2R,7aS)-2-fluorotetrahydro-1H-pyrrolizin-7a(5H)-yl)methoxy)-6-(trifluoromethyl)quinazolin-7-yl)-7-fluorobenzo[d]thiazol-2-amine]	4.2 nM	129 nM	22 nM	2460 nM
Nc1nc2c(-c3c(C(F)(F)F)cc4c(N[C@H]5[C@@H]6COC[C@@H]65)nc(OC[C@@]56CCCN5C[C@H](F)C6)nc4c3F)ccc(F)c2s1 [Example 7, 4-(4-(((1R,5S,6r)-3-oxabicyclo [3.1.0]hexan-6-yl)amino)-8-fluoro-2-(((2R,7aS)-2-fluorotetrahydro-1H-pyrrolizin-7a(5H)-yl)methoxy)-6-(trifluoromethyl)quinazolin-7-yl)-7-fluorobenzo[d]thiazol-2-amine]	4.2 nM	220 nM		
Nc1nc2c(-c3c(C(F)(F)F)cc4c(N5CCC5)nc(OC[C@@]56CCCN5C[C@H](F)C6)nc4c3F)ccc(F)c2s1 [Example 33, 4-(4-(azetidin-1-yl)-8-fluoro-2-(((2R,7aS)-2-fluorotetrahydro-1H-pyrrolizin-7a(5H)-yl)methoxy)-6-(trifluoromethyl)quinazolin-7-yl)-7-fluorobenzo[d]thiazol-2-amine]	2.6 nM	333 nM		
Nc1nc2c(-c3c(C(F)(F)F)cc4c(N5CC(F)C5)nc(OC[C@@]56CCCN5C[C@H](F)C6)nc4c3F)ccc(F)c2s1 [Example 37, 7-fluoro-4-(8-fluoro-4-(3-fluoroazetidin-1-yl)-2-(((2R,7aS)-2-fluorotetrahydro-1H-pyrrolizin-7a(5H)-yl)methoxy)-6-(trifluoromethyl)quinazolin-7-yl)benzo[d]thiazol-2-amine]	6 nM	449 nM		
N#CC1CN(c2nc(OC[C@@]34CCCN3C[C@H](F)C4)nc3c(F)c(-c4ccc(F)c5sc(N)nc45)c(C(F)(F)F)cc23)C1 [Example 39, 1-(7-(2-amino-7-fluorobenzo[d]thiazol-4-yl)-8-fluoro-2-(((2R,7aS)-2-fluorotetrahydro-1H-pyrrolizin-7a(5H)-yl)methoxy)-6-(trifluoromethyl)quinazolin-4-yl)azetidine-3-carbonitrile]	5.5 nM	410 nM		
CC1C(C#N)CN1c1nc(OC[C@@]23CCCN2C[C@H](F)C3)nc2c(F)c(-c3ccc(F)c4sc(N)nc34)c(C(F)(F)F)cc12 (stereo partly drawn) [Example 43, 1-(7-(2-amino-7-fluorobenzo[d]thiazol-4-yl)-8-fluoro-2-(((2R,7aS)-2-fluorotetrahydro-1H-pyrrolizin-7a(5H)-yl)methoxy)-6-(trifluoromethyl)quinazolin-4-yl)-2-methylazetidine-3-carbonitrile]	7.1 nM	356 nM		
N#CC1CCN(c2nc(OC[C@@]34CCCN3C[C@H](F)C4)nc3c(F)c(-c4ccc(F)c5sc(N)nc45)c(C(F)(F)F)cc23)C1 (stereo partly drawn) [Example 60, 1-(7-(2-amino-7-fluorobenzo[d]thiazol-4-yl)-8-fluoro-2-(((2R,7aS)-2-fluorotetrahydro-1H-pyrrolizin-7a(5H)-yl)methoxy)-6-(trifluoromethyl)quinazolin-4-yl)pyrrolidine-3-carbonitrile]	2.1 nM	413 nM		
N#CC1CCN(c2nc(OC[C@@]34CCCN3C[C@H](F)C4)nc3c(F)c(-c4ccc(F)c5sc(N)nc45)c(C(F)(F)F)cc23)CC1 [Example 68, 1-(7-(2-amino-7-fluorobenzo[d]thiazol-4-yl)-8-fluoro-2-(((2R,7aS)-2-fluorotetrahydro-1H-pyrrolizin-7a(5H)-yl)methoxy)-6-(trifluoromethyl)quinazolin-4-yl)piperidine-4-carbonitrile]	0.77 nM	76 nM	6.6 nM	686 nM
N#CC1CCCN(c2nc(OC[C@@]34CCCN3C[C@H](F)C4)nc3c(F)c(-c4ccc(F)c5sc(N)nc45)c(C(F)(F)F)cc23)CC1 (stereo partly drawn) [Example 82, 1-(7-(2-amino-7-fluorobenzo[d]thiazol-4-yl)-8-fluoro-2-(((2R,7aS)-2-fluorotetrahydro-1H-pyrrolizin-7a(5H)-yl)methoxy)-6-(trifluoromethyl)quinazolin-4-yl)azepane-4-carbonitrile]	0.74 nM	199 nM		
CN1CC2(CCN(c3nc(OC[C@@]45CCCN4C[C@H](F)C5)nc4c(F)c(-c5ccc(F)c6sc(N)nc56)c(C(F)(F)F)cc34)CC2)OC1=O [Example 87, 8-(7-(2-amino-7-fluorobenzo[d]thiazol-4-yl)-8-fluoro-2-(((2R,7aS)-2-fluorotetrahydro-1H-pyrrolizin-7a(5H)-yl)methoxy)-6-(trifluoromethyl)quinazolin-4-yl)-3-methyl-1-oxa-3,8-diazaspiro[4.5]decan-2-one]	0.77 nM	108 nM		
C[C@@H]1C[C@@H](C#N)CCN1c1nc(OC[C@@]23CCCN2C[C@H](F)C3)nc2c(F)c(-c3ccc(F)c4sc(N)c(C#N)c34)c(Cl)cc12 [Example 101, (2R,4S)-1-(7-(2-amino-3-cyano-7-fluorobenzo[b]thiophen-4-yl)-6-chloro-8-fluoro-2-(((2R,7aS)-2-fluorotetrahydro-1H-pyrrolizin-7a(5H)-yl)methoxy)quinazolin-4-yl)-2-methylpiperidine-4-carbonitrile]	0.28 nM	11 nM		
Nc1cc(Cl)c(C(F)(F)F)c(-c2ncc3c(N4CCC5CC5(O)C4)nc(OC[C@@]45CCCN4C[C@H](F)C5)nc3c2F)c1 (stereo partly drawn) [Example 131, 3-(7-(5-amino-3-chloro-2-(trifluoromethyl)phenyl)-8-fluoro-2-(((2R,7aS)-2-fluorotetrahydro-1H-pyrrolizin-7a(5H)-yl)methoxy)pyrido[4,3-d]pyrimidin-4-yl)-3-azabicyclo[4.1.0]heptan-1-ol]	23 nM			
